4 molecules from paper PMC11359702, “Synthesis and Biochemical Evaluation of Ethanoanthracenes and Related Compounds: Antiproliferative and Pro-Apoptotic Effects in Chronic Lymphocytic Leukemia (CLL)” (Pharmaceuticals, 2024) can be followed below.

Values joined by “and” are separate entries in the source; they are usually repeats but may differ in a detail not shown here. Equal values may be shown once. Read-outs that look alike come from different tables or passages of the source.

As usually defined, the viability is a per cent measure of how many cells are alive, often set against a control.

Data set [1] has as its system NCI 60 cancer cell line panel. The experiment in a line: NCI-60 five-dose assay, full-panel means. The data set is classed as cell-based. On the procedure:
(§1) A number of our most promising compounds identified through preliminary cell viability testing (23c, 23d, 23f, 23h, 23l, 23m, 23n, 23o, 24f, 24l, 25n and 26n) were selected for NCI drug screening in the 60-cell-line panel. The panel includes nine subcategories based on cancer tissue types, which include leukemia, ovarian, central nervous system, breast, lung, prostate, skin, renal and colon cancer. The compounds were initially assessed in a one-dose assay at a fixed treatment concentration of 10 µM. The compounds selected for further investigation were progressed to a five-dose assay across the concentration ranges of 0.01, 0.1, 1, 10 and 100 µM [72]. The endpoints assessed in the screening protocol were GI50, TGI and LC50 [72].

In data set [2] the test system is HG-3 and PGA-1 cell lines. The experiment in a line: alamarBlue cell viability assay, mean of both CLL cell lines. The class given is cell-based, human. As to conditions: mean of HG-3 and PGA-1.
Data set [3] has as its system K-562. As to the kind of experiment: NCI-60 five-dose assay. The class given is cell-based, human.
For data set [4], the system named is MOLT-4. As to the kind of experiment: NCI-60 five-dose assay. The data set is classed as cell-based, human.
Data set [5] deals with melanoma cell lines. As to the kind of experiment: NCI-60 five-dose assay, melanoma cell lines. The class given is cell-based, human. To be noted: range over melanoma cell lines. As to the method:
as §1

The test system of data set [6] is HT29. The experiment in a line: NCI-60 five-dose assay. The data set is classed as cell-based, human. To be noted: for GI50: HT29. As to the method:
as §1

Data set [7] relates to SNB-75. As to the kind of experiment: NCI-60 five-dose assay. The data set is classed as cell-based, human. On the procedure:
as §1

The subject of data set [8] is SK-MEL-5. The experiment in a line: NCI-60 five-dose assay. The class given is cell-based, human. On the procedure:
as §1

The test system of data set [9] is RPMI-8226. The experiment in a line: NCI-60 five-dose assay. The class given is cell-based, human.
Data set [10] deals with PGA-1 cells. The experiment in a line: alamarBlue cell viability assay. To be noted: for IC50: read-out: PGA-1 IC50. On the technique in general: The colour change of resazurin is a common sign of viable cells or microbes.
Data set [11] relates to HL-60(TB). The experiment in a line: NCI-60 five-dose assay. The data set is classed as cell-based, human.
Data set [12] relates to SR. The experiment in a line: NCI-60 five-dose assay. The class given is cell-based, human.
For data set [13], the system named is leukemia cell panel. As to the kind of experiment: NCI-60 five-dose assay, leukemia cell panel mean. As to conditions: mean across the six leukemia cell lines. The data set is classed as cell-based, human.
Data set [14] deals with CCRF-CEM. The experiment in a line: NCI-60 five-dose assay. The class given is cell-based, human.
In data set [15] the test system is HG-3 cells. The experiment in a line: alamarBlue cell viability assay. To be noted: HG-3, 24 h; for IC50: read-out: HG-3 IC50; for viability at 10 µM: read-out: cell viability, HG-3, 10 µM, 24 h, vehicle = 100%.
For data set [16], the system named is healthy-donor peripheral blood mononuclear cells (PBMCs). As to the kind of experiment: Annexin V/PI assay in donor PBMCs. The data set is classed as cell-based. To be noted: 48 h. From the text: Whole blood samples from healthy donors (×5) were isolated, prepared and treated following the protocol previously described. The percentage of apoptosis observed in the treatment of isolated donor PBMCs with nitrovinylethanoanthracene 20a is concentration-dependent (Figure 11A). […] For ethanoanthracene 23a, the percentage of total apoptosis observed is illustrated in Figure 11B. […] The percentage of total apoptosis observed in the treatment of isolated donor PBMCs with the anthracene–chalcone 25n (normalized against vehicle 0.5% v/v DMSO) is illustrated in Figure 11C, and the dose-response behavior was also concentration-dependent, with compound 25n moderately toxic to healthy-donor PBMCs when treated at a 5.00 µM concentration (39%).
The human peripheral blood mononuclear cells (PBMCs) were generated as follows: peripheral blood was obtained from healthy donors (n = 2) after informed consent was received. The blood was then placed into a 50-mL falcon tube and diluted with an equal volume of phosphate-buffered saline (PBS). PBMCs were isolated using density-gradient centrifugation with LymphoPrep, as described previously. The cells were resuspended in RPMI media containing 10% FBS and 1% penicillin/streptomycin (P/S). The cells were counted using a haemocytometer and seeded into 96 well plates at a density of 1 × 10^5 cells/well (200 µL), and they were incubated at 37 °C for 1 h prior to compound treatment. The Annexin V/PI assay was used as a preliminary method of assessing the selective toxicity of the above compounds when compared with a previous alamarBlue cell viability assay in CLL cell lines. The assay was carried out as described above for the Annexin V/PI assay previously described above, and it was completed in triplicate on two independent days. Approval for this study was obtained from the School of Pharmacy and Pharmaceutical Sciences Trinity College Dublin Research Ethics Committee (2020-06-01-MS).

The subject of data set [17] is PGA-1 cells. As to the kind of experiment: Annexin V/PI apoptosis assay (FACS). The class given is cell-based, human. As to conditions: PGA-1, 10 µM. On the procedure:
(§2) The pro-apoptotic effects of selected nitrovinylethanoanthracene compounds 20a and 20f and anthracene chalcones 23a and 25n in HG-3 cells and PGA-1 cells was then investigated using FITC (fluorescein isothiocyanate), Annexin V/PI (propidium iodide) and FACS (fluorescence-activated cell sorting) analysis to characterize the mode of cellular death induced. Apoptosis was assessed as % total apoptosis (total of early (Q3) and late (Q2) apoptosis).
(§3) CLL cells PGA-1 and HG-3 (1 × 10^6 cells/mL) were treated at 37 °C with either the vehicle (1% (v/v) DMSO) or the ethanoanthracene compounds 20a, 20f, 23a and 25n (10 µM, 5 µM and 1 µM) for 48 h, following the protocol previously described. The cells were then harvested via centrifugation at 400× g in a temperature-controlled Sorvall centrifuge. The cells were rinsed with Ca^2+ Annexin-V-binding buffer (0.1 M HEPES, pH 7.4; 0.14 M NaCl; 25 mM CaCl2, 0.5 mL). The samples were resuspended in FITC Annexin V (diluted 1:33 in Ca^2+ Annexin V-binding buffer, 50 µL) and incubated for 10 min (on ice and protected from light). The samples were washed with Annexin-V-binding buffer and resuspended in a PI solution (0.5 µg/mL, 500 µL) and analyzed within 1 h using a BD Accuri C6 flow cytometer counting 10,000 cells using the FlowJo software Version 10 (FlowJo LLC, Ashland, OR, USA).

Data set [18] has as its system HG-3 cells. The experiment in a line: Annexin V/PI apoptosis assay (FACS). The data set is classed as cell-based, human. As to the method: as §2, §3
The mark [19] stands for this setting: mean over NCI 60 cell line panel.
The mark [20] stands for this setting: Homo sapiens, mean over NCI 60 cell line panel, read-out: Mean GI50 (MID GI50, full-panel mean-graph mid-point).
Where [21] appears, read: Homo sapiens, mean over NCI 60 cell line panel, read-out: Mean LC50 (MID LC50).
Setting [22] is: Homo sapiens, RPMI-8226, RPMI-8226.
Where [23] appears, read: Homo sapiens, 24 h, read-out: cell viability.

In turn, `O=C(/C=C/C12c3ccccc3C(c3ccccc31)C1C(=O)NC(=O)C12)c1ccc(Cl)cc1` (racemic) [Compound 23l, (E)-9-(3-(4-Chlorophenyl)-3-oxoprop-1-en-1-yl)-9,10-dihydro-9,10-[3,4]epipyrroloanthracene-12,14-dione] came in with a CC50 in data set [1] of 13200 nM. The “Mean TGI (MID TGI, total growth inhibition)” value in data set [1] (setting [19]) is 4265 nM. The GI50 in [1] (mean over NCI 60 cell line panel, read-out: Mean GI50 (MID GI50, full-panel mean-graph mid-point)) was 1620 nM; in [3] (K-562) it was 1990 nM; in data set [4] (MOLT-4), 1700 nM; in [5], 1400 to 1810 nM; in [6], 2270 nM; in data set [7], 1100 nM. Besides, the GI50 turned out to be 1700 nM in [8]; 1660 nM in [9] (RPMI-8226); 1470 nM in [11] (HL-60(TB)); 2150 nM in [12]; 1770 nM in data set [13]; 1660 nM in [14]. The IC50 in [2] came to 2720 nM; in data set [10] (PGA-1, 24 h), 3210 nM; in data set [15] it was 2230 nM.
With `O=C(/C=C/C12c3ccccc3C(c3ccccc31)C1C(=O)NC(=O)C12)c1ccc(F)cc1` (racemic) [Compound 23h], the GI50 in [1] (setting [20]) is 1700 nM; in [3] (Homo sapiens, K562, K-562), 1420 nM; in [3] (K-562), 1550 nM; in data set [4] (Homo sapiens, MOLT-4, MOLT-4) it was 460 nM; in data set [4] (MOLT-4), 759 nM; in data set [5] (Homo sapiens) it was 1600 to 2480 nM. Also, the GI50 in data set [6] (Homo sapiens, HT-29) came to 1860 nM; in data set [7] (Homo sapiens), 1370 nM; in [8] (Homo sapiens), 1950 nM; in data set [9] (setting [22]), 1620 nM; in data set [9] (RPMI-8226) it was 1160 nM; in data set [13] (Homo sapiens), 1000 nM. For the same molecule, the CC50 in [1] (setting [21]) worked out at 14400 nM. Further, the “Mean TGI (MID TGI, total growth inhibition)” value in data set [1] (setting [19]) was 4265 nM. Also, the IC50 in data set [2] (Homo sapiens, CLL cell) was 3770 nM; in data set [10] (Homo sapiens, 24 h), 2880 nM; in data set [15] (Homo sapiens), 4650 nM. For the same molecule, the viability at 10 µM in data set [10] (setting [23]) is 9%.
Turning to `O=C(C=CC12c3ccccc3C(c3ccccc31)C1C(=O)NC(=O)C12)c1ccc(Br)cc1` (stereo not drawn) [Compound 23a, 9-(E)-3-(4-Bromophenyl)-3-oxoprop-1-en-1-yl)-9,10-dihydro-9,10-[3,4]epipyrroloanthracene-12,14-dione], the IC50 in [2] (Homo sapiens, CLL cell) turned out to be 2330 nM; in data set [10] (Homo sapiens, 24 h) it was 1970 nM; in data set [15] (Homo sapiens), 2690 nM. Besides, the “total apoptosis (toxicity) in healthy-donor PBMCs” value is 28% in [16] (5 µM) and 5–14% in data set [16] (1.25–2.5 µM). The viability at 10 µM in [10] (setting [23]) was found to be 3%; in data set [15] (Homo sapiens), 0.5%. Also, the “total apoptosis (early Q3 + late Q2)” value in data set [17] was 87–97% and 89%; in [18] (HG-3, 1 µM), 33%; in data set [18] (HG-3, 10 µM), 82–95% and 95%.
For the molecule `O=C(C=CC12c3ccccc3C(c3ccccc31)C1C(=O)N(c3ccc(Cl)cc3)C(=O)C12)c1ccccn1` (stereo not drawn) [Compound 25n, (E)-13-(4-Chlorophenyl)-9-(3-oxo-3-(pyridin-2-yl)prop-1-en-1-yl)-9,10-dihydro-9,10-[3,4]epipyrroloanthracene-12,14-dione], the GI50 is 389 nM in [1] (Homo sapiens, heatmap Figure 8, concentration in molar, read-out: Log 10 GI-50 Mean (converted)); 245 nM in data set [1] (setting [20]); 290 nM in data set [3] (Homo sapiens, K562, K-562); 293 nM in data set [3] (K-562); 320 nM in data set [4] (Homo sapiens, MOLT-4, MOLT-4); 366 nM in data set [4] (MOLT-4). Also, the GI50 in data set [5] (Homo sapiens) is 194 to 1080 nM; in data set [6] (Homo sapiens, HT-29) it was 335 nM; in data set [8] (Homo sapiens), 1080 nM; in data set [9] (setting [22]), 250 nM; in data set [9] (RPMI-8226), 252 nM; in data set [11] (HL-60(TB)) it was 292 nM. For the same molecule, the GI50 in data set [11] (Homo sapiens, HL-60, HL-60(TB)) is 290 nM; in [12], 284 nM; in data set [12] (Homo sapiens), 280 nM; in [13] (Homo sapiens), 290 nM; in data set [14] it was 321 nM; in data set [14] (Homo sapiens), 320 nM. Further, the IC50 was 741 nM in data set [1] (Homo sapiens, heatmap Figure 8, concentration in molar, read-out: Log 10 IC-50 Mean (converted)); 1090 nM in [2] (Homo sapiens, CLL cell); 335 nM in data set [6] (chemoresistant HT-29 human colorectal adenocarcinoma cell line); 870 nM in data set [10] (Homo sapiens, 24 h); 1310 nM in data set [15] (Homo sapiens). Also, the CC50 was 41700 nM in [1] (Homo sapiens, heatmap Figure 8, concentration in molar, read-out: Log 10 LC-50 Mean (converted)) and 18600 nM in data set [1] (setting [21]). The “total apoptosis (toxicity) in healthy-donor PBMCs” value in data set [16] (5 µM) is on record as 39%. The viability at 1 µM in data set [10] (setting [23]) was 25%; in data set [15] (Homo sapiens, read-out: cell viability, HG-3, 1 µM, 24 h, vehicle = 100%) it was 30%. In addition, the viability at 10 µM in data set [10] (setting [23]) stood at 7%; in [15] (Homo sapiens), 2%. Further, the “total apoptosis (early Q3 + late Q2)” value in data set [17] is 87–97% and 87%; in data set [18] (HG-3, 1 µM) it was 37%; in data set [18] (HG-3, 10 µM) it was 82–95% and 93%.
